Assay [1] has as its system Cavia porcellus. In words: Compound was administered intravenously and evaluated for activity against neurokinin A-induced guinea pig dyspnea model. The conditions noted are these: iv. The class given is functional.
Assay [2] concerns Cavia porcellus. The experiment in a line: Compound was administered perorally and evaluated for oral activity in neurokinin A-induced guinea pig dyspnea model. The class given is functional.
Assay [3] deals with T1, Substance-K receptor (Cavia porcellus) (UniProt Q64077).
T1 sequence (whole entry): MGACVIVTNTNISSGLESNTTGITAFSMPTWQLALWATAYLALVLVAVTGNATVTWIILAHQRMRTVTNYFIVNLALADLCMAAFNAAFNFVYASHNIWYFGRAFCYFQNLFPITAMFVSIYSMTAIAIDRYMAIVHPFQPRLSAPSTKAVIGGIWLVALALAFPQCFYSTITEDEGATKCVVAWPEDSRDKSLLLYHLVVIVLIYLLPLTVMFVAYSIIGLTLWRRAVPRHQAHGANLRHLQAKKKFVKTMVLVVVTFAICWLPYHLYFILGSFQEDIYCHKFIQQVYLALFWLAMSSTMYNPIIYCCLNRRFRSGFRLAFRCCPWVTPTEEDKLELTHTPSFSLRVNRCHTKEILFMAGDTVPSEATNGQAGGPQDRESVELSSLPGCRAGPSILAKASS
The experiment in a line: Inhibition of [beta-Ala]NKA(4-10)-induced contraction of isolated guinea pig trachea. The class given is functional, tissue-based.

The target in the next assay is T2, Substance-K receptor (Homo sapiens, UniProt P21452).
T2 sequence (P21452 whole entry): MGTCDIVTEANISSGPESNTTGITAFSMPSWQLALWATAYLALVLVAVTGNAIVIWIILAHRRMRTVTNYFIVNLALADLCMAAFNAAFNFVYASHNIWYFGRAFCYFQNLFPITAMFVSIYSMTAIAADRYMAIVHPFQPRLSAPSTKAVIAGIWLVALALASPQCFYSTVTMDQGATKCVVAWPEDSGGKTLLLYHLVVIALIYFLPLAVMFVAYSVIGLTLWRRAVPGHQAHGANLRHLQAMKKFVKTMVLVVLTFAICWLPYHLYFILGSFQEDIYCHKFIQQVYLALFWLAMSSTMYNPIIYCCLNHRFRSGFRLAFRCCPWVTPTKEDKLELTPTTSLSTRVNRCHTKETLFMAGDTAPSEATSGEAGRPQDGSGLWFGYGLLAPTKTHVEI
In words: Displacement of [3H]- NKA from human NK-2 receptor expressed in MEL cells. The class given is cell-based. On the technique in general: Displacement assays read how much labelled ligand stays bound in the presence of the test substance.

For assay [4], the system named is Cavia porcellus. The experiment in a line: Compound was administered perorally (po) and evaluated for oral activity in neurokinin A-induced guinea pig dyspnea model at 5 umol/kg dose. The class given is functional.
Assay [5] relates to Cavia porcellus. In words: Compound was administered perorally and evaluated for oral activity in neurokinin A-induced guinea pig dyspnea model at 5 umol/Kg dose. The class given is functional.

Molecules are shown by their SMILES.

By ED50 is commonly meant the dose that gives a 50% effect, or the effect in half of the subjects. Broadly, the pKB is the negative decadic logarithm of the KB, by convention in mol/L. Higher therefore signals a small KB. What is called Ki is a dissociation constant, usually derived from enzyme kinetics or from competition with a known ligand. A lower Ki goes with tighter binding. Usually inhibition in vivo stands for the percentage by which the read-out fell short of the control.

Take `CCCC(O)(CCC)C1CCN(CCC(CN(C)C(=O)c2ccccc2)c2ccc(Cl)c(Cl)c2)CC1` (stereo unspecified): the ED50 with Cavia porcellus [1] came out at 0.54 µmol/kg; in the assay with Cavia porcellus [2] it was 1.4 µmol/kg. The pKB in assay [3] was 8.4. Also, at Substance-K receptor, the Ki turned out to be 4.7 nM.
In the assay with Cavia porcellus [4], `CCC(O)(CC)C1CCN(CCC(CN(C)C(=O)c2ccccc2)c2ccc(Cl)c(Cl)c2)CC1` (stereo unspecified) came in with an inhibition in vivo at 5 µmol/kg of 63%. Also, the pKB in assay [3] stood at 8.8. On Substance-K receptor, this compound had a Ki of 3.5 nM.
For the compound `CCCC1CCN(CCC(CN(C)C(=O)c2ccccc2)c2ccc(Cl)c(Cl)c2)CC1` (stereo unspecified), in assay [3], the pKB worked out at 7.5. For the same compound, the Ki on Substance-K receptor is 9.9 nM.
The compound `CN(CC(CCN1CCC(CO)CC1)c1ccc(Cl)c(Cl)c1)C(=O)c1ccccc1` (stereo unspecified) displayed an inhibition in vivo at 5 µmol/kg in the assay on Cavia porcellus [5] of 13%. Besides, in assay [3], the pKB worked out at 8. The Ki at Substance-K receptor amounted to 142 nM.
The corresponding values for `CN(CC(CCN1CCC(CCO)CC1)c1ccc(Cl)c(Cl)c1)C(=O)c1ccccc1` (stereo unspecified) are 7%, 8.3 and 47 nM.
In assay [3], `CC(=O)OCCC1CCN(CCC(CN(C)C(=O)c2ccccc2)c2ccc(Cl)c(Cl)c2)CC1` (stereo unspecified) had a pKB of 7.8.
Turning to `CC/C(=N\OC)C1CCN(CCC(CN(C)C(=O)c2ccccc2)c2ccc(Cl)c(Cl)c2)CC1` (stereo unspecified), the pKB in assay [3] worked out at 7.6. Also, the Ki on Substance-K receptor amounted to 6.5 nM.
With `CC(=O)NC1(c2ccccc2)CCN(CCC(CN(C)C(=O)c2ccccc2)c2ccc(Cl)c(Cl)c2)CC1` (stereo in doubt; 2) [listing 1 of 2 here], the Ki at Substance-K receptor was 1.75 nM.
In assay [3], `CCCC(O)C1CCN(CCC(CN(C)C(=O)c2ccccc2)c2ccc(Cl)c(Cl)c2)CC1` (stereo unspecified) showed a pKB of 7.5. The compound further came in with a Ki at Substance-K receptor of 3.7 nM.
For `CC(=O)NCCC1CCN(CCC(CN(C)C(=O)c2ccccc2)c2ccc(Cl)c(Cl)c2)CC1` (stereo unspecified) the same measures were 7.9 and 66 nM.
In turn, `CC(=O)NC1(c2ccccc2)CCN(CCC(CN(C)C(=O)c2ccccc2)c2ccc(Cl)c(Cl)c2)CC1` (stereo in doubt; 1) [listing 1 of 2 here] registered a pKB in assay [3] of 9.1.
Consider `CCC(O)C1CCN(CCC(CN(C)C(=O)c2ccccc2)c2ccc(Cl)c(Cl)c2)CC1` (stereo unspecified), for which the pKB in assay [3] amounted to 7.9. For the same compound, affinity on Substance-K receptor was put at a Ki of 13.1 nM.
`CC(=O)NC1(c2ccccc2)CCN(CCC(CN(C)C(=O)c2ccccc2)c2ccc(Cl)c(Cl)c2)CC1` (stereo in doubt; 2) [listing 2 of 2 here] yielded a pKB in assay [3] of 9.2.
As for `CC/C(=N\O)C1CCN(CCC(CN(C)C(=O)c2ccccc2)c2ccc(Cl)c(Cl)c2)CC1` (stereo unspecified), the inhibition in vivo at 5 µmol/kg with Cavia porcellus [4] is 20%. In addition, the pKB in assay [3] was 8.8. The same compound came in with a Ki on Substance-K receptor of 1.3 nM.
`CCC(=NO)C1CCN(CCC(CN(C)C(=O)c2ccccc2)c2ccc(Cl)c(Cl)c2)CC1` (stereo unspecified) yielded a pKB in assay [3] of 9.1. For the same compound, at Substance-K receptor, the Ki came out at 2.7 nM.
`CC/C(=N/O)C1CCN(CCC(CN(C)C(=O)c2ccccc2)c2ccc(Cl)c(Cl)c2)CC1` (stereo unspecified) gave a pKB in assay [3] of 8.8. Moreover, the Ki on Substance-K receptor was found to be 2.1 nM.
Consider `CN(CC(CCN1CCC(C(C)(C)O)CC1)c1ccc(Cl)c(Cl)c1)C(=O)c1ccccc1` (stereo unspecified), for which the pKB in assay [3] was determined as 7.5. In addition, the Ki at Substance-K receptor came out at 7.7 nM.
Take `CCC(O)(CC)C1CCN(CC[C@H](CN(C)C(=O)c2ccccc2)c2ccc(Cl)c(Cl)c2)CC1`: the results for the ED50 in the assay on Cavia porcellus [1] and in the assay with Cavia porcellus [2] were 0.4 µmol/kg and 3.49 µmol/kg, respectively. In addition, in assay [3], the pKB amounted to 8.1. The affinity on Substance-K receptor corresponds to a Ki of 0.84 nM.
For the compound `CCC(=O)C1CCN(CCC(CN(C)C(=O)c2ccccc2)c2ccc(Cl)c(Cl)c2)CC1` (stereo unspecified), the pKB in assay [3] is 8.6. The affinity on Substance-K receptor, expressed as Ki, was 9.2 nM.
In turn, `CC(O)C1CCN(CCC(CN(C)C(=O)c2ccccc2)c2ccc(Cl)c(Cl)c2)CC1` (stereo unspecified) gave a pKB in assay [3] of 7.8. The compound also showed a Ki on Substance-K receptor of 33.5 nM.
As to `CC(=O)NC1(c2ccccc2)CCN(CCC(CN(C)C(=O)c2ccccc2)c2ccc(Cl)c(Cl)c2)CC1` (stereo in doubt; 1) [listing 2 of 2 here], in the assay with Cavia porcellus [2], the ED50 was found to be 1.97 µmol/kg. Besides, at Substance-K receptor, affinity was put at a Ki of 0.6 nM.

For the origin of these results see ChEMBL document CHEMBL1130898, “4-Alkylpiperidines related to SR-48968: potent antagonists of the neurokinin-2 (NK2) receptor” (Bioorg Med Chem Lett, 1998).
